Experimental data from patent US8450348B2, “Derivatives of squaric acid with anti-proliferative activity” (Forma TM, LLC, priority 2007, dated 2013).

Columns and labels:
Format in all cases: cell-based
[1] = test system: A2780; assay: SRB assay, % inhibition of tumor cell growth (Example 61); conditions: Homo sapiens, 48 hours, vs DMSO-treated cells
Experimental: (§1) 3,000-15,000 cells/well were exposed to the test compounds at a concentration of 1 μM for 48 hours, and cytotoxicity was measured using the SRB assay according to Shekan et al (J Natl Cancer Inst (1990) 82, 1107-112). Briefly, cells were plated in 96 well dishes 24 hours prior to compound addition. The assay was terminated with the addition of cold TCA to a final concentration of 10% and the plates were incubated for one hour at 4° C. The plates were then washed 5 times with water and 100 μl of a Sulforhodamine B solution ([…]) was added to each well. The plate was then incubated for 10 minutes at room temperature before removal of unbound dye by washing with 1% acetic acid. The bound dye was solubilized with 10 mM Trizma base and the absorbance read at OD570. Inhibitory activity of the compounds was calculated as % inhibition compared to cells treated with the solvent (DMSO). Table 2 represents the growth inhibitory activity of certain compounds of the invention across a number of tumor cell lines.

[2] = test system: HCT-116; assay: as above; conditions: Homo sapiens, 48 hours, vs DMSO-treated cells
Experimental: as §1

[3] = test system: MCF7; assay: as above; conditions: Homo sapiens, 48 hours, vs DMSO-treated cells
Experimental: as §1

[4] = test system: PC-3; assay: as above; conditions: Homo sapiens, 48 hours, vs DMSO-treated cells
Experimental: as §1

[5] = test system: SW-620; assay: as above; conditions: Homo sapiens, 48 hours, vs DMSO-treated cells
Experimental: as §1

[6] = test system: HCT-116; assay: IC50 determination, SRB assay (Example 62); conditions: Homo sapiens, estimated from fitted curve, growth inhibition
Experimental: as §1
(§2) The assay was performed similar to example 61. However, test compounds were added at various concentrations, such as from 0.001 to about 0.1 μM, from 0.1 to about 10 μM, or from 1 to about 10 μM, as the need may be, in order to estimate the IC50 values. IC50 values were determined by plotting the percentage inhibitory activity for each concentration, fitting a curve using appropriate software and estimating the concentration at which 50% inhibition of growth would occur.

[7] = test system: MCF7; assay: IC50 determination, SRB assay (Example 62); conditions: Homo sapiens, estimated from fitted curve, growth inhibition
Experimental: as §1, §2

[8] = test system: SW-620; assay: IC50 determination, SRB assay (Example 62); conditions: Homo sapiens, estimated from fitted curve, growth inhibition
Experimental: as §1, §2

[9] = test system: A-549; assay: SRB assay, % inhibition of tumor cell growth (Example 61); conditions: Homo sapiens, A549, 48 hours, vs DMSO-treated cells
Experimental: as §1

[10] = test system: A2780; assay: IC50 determination, SRB assay (Example 62); conditions: Homo sapiens, estimated from fitted curve, growth inhibition
Experimental: as §1, §2

Q: Which results are given for `O=c1c(NCCc2ccc(Oc3ccccc3)cc2)c(Nc2cccnc2)c1=O` [SQ-5, 3-[2-(4-Phenoxyphenyl)-ethylamino]-4-(pyridin-3-yl-amino)-cyclobut-3-ene-1,2-dione]?
A: inhibition at 1 µM [1]: > 80%; inhibition at 1 µM [2]: > 80%; inhibition at 1 µM [3]: > 50%; inhibition at 1 µM [4]: > 50%; inhibition at 1 µM [5]: 0%; IC50 [6]: < 0.1 µM; IC50 [7]: < 10 µM; IC50 [8]: < 2 µM

Q: With `O=c1c(NCc2ccc(Oc3ccccc3)cc2)c(Nc2cccnc2)c1=O` [SQ-34, 3-(4-Phenoxy-benzylamino)-4-(pyridin-3-ylamino)-cyclobut-3-ene-1,2-dione] as the compound, how does the inhibition at 1 µM [9] read?
A: 0%

Q: What about the inhibition at 1 µM [1] of the same compound?
A: > 20%

Q: What about the inhibition at 1 µM [2] of the same compound?
A: > 20%

Q: And the inhibition at 1 µM [4]?
A: > 0%

Q: And the inhibition at 1 µM [5]?
A: 0%

Q: `O=c1c(NCCCCCCOc2ccc(Cl)c(Cl)c2)c(Nc2ccncc2)c1=O` [SQ-15] was tested. Which inhibition at 1 µM [9] did it give?
A: > 20%

Q: And the inhibition at 1 µM [1]?
A: > 80%

Q: What about the inhibition at 1 µM [2] of the same compound?
A: > 80%

Q: And the inhibition at 1 µM [3]?
A: > 20%

Q: And the inhibition at 1 µM [4]?
A: > 50%

Q: And the inhibition at 1 µM [5]?
A: > 20%

Q: And the IC50 [6]?
A: < 0.1 µM

Q: What about the IC50 [8] of the same compound?
A: < 0.5 µM

Q: Which inhibition at 1 µM [1] does the source give for `O=c1c(NCCCCCCOc2ccc(Cl)cc2)c(Nc2ccncc2)c1=O` [SQ-7B] here?
A: > 80%

Q: What about the inhibition at 1 µM [2] of the same compound?
A: > 80%

Q: And the inhibition at 1 µM [4]?
A: > 50%

Q: And the inhibition at 1 µM [5]?
A: > 50%

Q: What about the IC50 [10] of the same compound?
A: < 0.1 µM

Q: And the IC50 [6]?
A: < 0.1 µM

Q: And the IC50 [7]?
A: < 0.1 µM
